What was measured:
acetylated histones = test: Histone acetylation in spleen after in vivo treatment (Western blot, immunohistochemistry); parameters: species or system mice; conditions: for histone acetylation, spleen whole cell extracts: VPA 400 mg/kg, three and six hours, FIG. 2A
Procedure: FIG. 2: (A) Secondary acute promyelocytic leukemias were induced in mice as described above. (A) Leukemic mice or healthy mice (Ctrl) were then treated with placebo or VPA (400 mg/kg) for three and six hours. Mice were then sacrificed, whole cell extracts were prepared from the spleen (with >70% leukemic infiltration), and analyzed by SDS-PAGE followed by Western blot analysis using commercially available antibodies against acetylated histone H3. (B) Immunohistochemistry analysis of VPA-treated leukemic mice using a monoclonal antibody against acetylated histones.

HDAC-2 = HDAC-2 pulse labeling and pulse-chase analysis in F9 cells; assay type: cell-based, murine; conditions: 1 mM VPA pretreatment 24 h
Procedure: FIG. 8: Synthesis and degradation rate of HDAC-2 were analyzed by pulse metabolic labeling with ^35S-methionine and pulse-chase analyses. ^35S-labelled HDAC-2 was detected by HDAC-2 specific immune precipitation followed by SDS-PAGE separation and autoradiography. (A) Pulse labeling for 1 h was performed in F9 and HEK293T cells which had been left untreated or were pretreated with 1 mM VPA for 24 h. (B) For pulse chase analysis cells were left untreated or pretreated for 24 h with 1 mM VPA and labeled with ^35S-methionine for an additional hour in the absence or presence of VPA. After removal of ^35S-methionine and addition of non-labeled methionine the elimination of radiolabeled HDAC-2 was followed over a period of 6 h. A pulse chase analysis was also performed in HEK293T cells without VPA pretreatment and addition of VPA (indicated by the (+) row) only at the time when the chase period was started. From HEK293T cell extracts also HDAC-3 was precipitated for reference.

[1] = test system: acute promyelocytic leukemia mice; test: Secondary acute promyelocytic leukemia mouse model: survival and splenomegaly; assay type: in vivo
Excerpt: FIG. 1: (A) Secondary acute promyelocytic leukemias were induced in mice. In brief, primary leukemias were induced in mice by injecting PMURAR expressing bone marrow cells into the tail veins. Mice with overt leukemias were euthanized, and leukemic cells were harvested from the spleen. Leukemic cells were re-injected i.v. (1×10^7 cells/mouse) in non-irradiated, syngeneic recipient mice. The secondary recipient mice developed overt leukemia in about 2-3 weeks. Leukemic mice or healthy mice (Ctrl) were then treated with placebo (lanes 1, 3), or VPA (400 mg/kg every 12 hours) for two consecutive weeks. (B) Leukemic mice were treated with placebo (lower, Ctrl) or VPA (400 mg/kg every twelve hours, upper) for one week. At the end of the treatment, mice were sacrificed, and spleens were photographed.

CCCC(CCC)C(=O)O [VPA, Valproic acid] was tested, and the “histone acetylation, spleen whole cell extracts” value (acetylated histones; leukemic mice (>70% leukemic infiltration)) was “enhanced levels of histone acetylation”, the “histone acetylation by immunohistochemistry” value (acetylated histones; leukemic mice, monoclonal antibody against acetylated histones, FIG. 2B) was “dramatic increase of histone acetylation in all cells” and the “histone acetylation, spleen whole cell extracts” value (acetylated histones; normal mice) was “enhanced levels of histone acetylation”. For the same compound, the “HDAC-2 synthesis rate (35S-methionine pulse labeling)” value (HDAC-2; FIG. 8A) was “No substantial difference in HDAC-2 synthesis rate”, the “half-life of HDAC-2 (pulse-chase)” value (HDAC-2; FIG. 8B) was “substantially decreased” and the “survival of leukemic mice” value ([1]; VPA 400 mg/kg every 12 hours for two consecutive weeks vs placebo, P<0.01, FIG. 1A) was “extended survival of leukemic mice in a statistically significant way”. For the same compound, the “splenomegaly caused by blast infiltration” value ([1]; VPA 400 mg/kg every twelve hours for one week vs placebo, FIG. 1B) was “dramatic reduction in the splenomegaly”.

Reference: patent US20130231472A1, “USE OF MOLECULAR MARKERS FOR THE PRECLINICAL PROFILING OF INHIBITORS OF ENZYMES HAVING HISTONE DEACETYLASE ACTIVITY” (priority 2002, published 2013)
